T/C data for 16 compounds are collected here from PubChem BioAssay AID328 (DTP/NCI, 2004).

The test has as its system BDF1 mice, P388 leukemia ip, median survival T/C. Put plainly: NCI In Vivo Anticancer Drug Screen. Data for tumor model P388 Leukemia (intraperitoneal) in B6D2F1 (BDF1) mice. The note with it: endpoint: median survival time, higher = longer survival. The gist of the method: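 Vehicle-dosed animals serve as the reference; survival of compound-dosed, tumour-implanted mice is divided by it.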

Setting [1] is: dose: 50.0 mg/kg/injection, schedule: Q01DX009 (ip), vehicle: saline with Tween-80.
[2] abbreviates: dose: 100.0 mg/kg/injection, schedule: Q01DX009 (ip), vehicle: saline with Tween-80.
The mark [3] stands for this setting: dose: 5.0 mg/kg/injection, schedule: Q01DX009 (ip), vehicle: saline.

“And” between values parts separate entries of the source, which are not always exact repeats. Equal entries are not always repeated. Toxic doses and inconclusive results are not listed.

Consider `O=C(Nc1nc(Cl)nc(Cl)n1)N1CCOCC1`, for which the T/C reads like this: (dose: 6.25 mg/kg/injection, schedule: Q01DX009 (ip), vehicle: saline with Tween-80) 104 % of control; (dose: 9.0 mg/kg/injection, schedule: Q01DX009 (ip), vehicle: saline with Tween-80) 103 % of control; (dose: 12.0 mg/kg/injection, schedule: Q01DX009 (ip), vehicle: saline with Tween-80) 112 % of control; (dose: 12.5 mg/kg/injection, schedule: Q04DX003 (ip), vehicle: saline with Tween-80) 118 % of control; (dose: 18.0 mg/kg/injection, schedule: Q01DX009 (ip), vehicle: saline with Tween-80) 112 % of control; (dose: 25.0 mg/kg/injection, schedule: Q04DX003 (ip), vehicle: saline with Tween-80) 109 % of control.
Turning to `CCOC(=O)c1c(C)cc(C)nc1[S][Sn]([Br])([Br])[S]c1nc(C)cc(C)c1C(=O)OCC`, the T/C is 97 % of control under setting [1]; 103 % of control under setting [2]; 106 % of control (dose: 200.0 mg/kg/injection, schedule: Q01DX009 (ip), vehicle: saline with Tween-80).
In the case of `NC(=O)CNCCS(=O)(=O)O`, the T/C is, setting by setting: (dose: 100.0 mg/kg/injection, schedule: Q01DX009 (ip), vehicle: saline) 91 % of control; (dose: 100.0 mg/kg/injection, schedule: Q04DX003 (ip), vehicle: saline) 100 % of control; (dose: 200.0 mg/kg/injection, schedule: Q01DX009 (ip), vehicle: saline) 87 % of control; (dose: 200.0 mg/kg/injection, schedule: Q04DX003 (ip), vehicle: saline) 109 % of control; (dose: 400.0 mg/kg/injection, schedule: Q04DX003 (ip), vehicle: saline) 104 % of control.
Consider `CCCCCCCCCCCCCCCC[N+]1(CC)CCCC1`, for which the T/C is 120 % of control (dose: 0.19 mg/kg/injection, schedule: Q01DX009 (ip), vehicle: saline) and 104 % of control (dose: 0.39 mg/kg/injection, schedule: Q01DX009 (ip), vehicle: saline).
On to `[Cl][Ni+2][Cl].[NH-]CCN1CC1`, for which the T/C by setting is: (dose: 6.25 mg/kg/injection, schedule: Q01DX001 (ip), vehicle: saline) 90 % of control; (dose: 12.5 mg/kg/injection, schedule: Q01DX001 (ip), vehicle: saline) 100 % of control; (dose: 25.0 mg/kg/injection, schedule: Q01DX001 (ip), vehicle: saline) 100 % of control.
In the case of `NC(=O)N/N=C1/CCCC(C(=O)O)C1` (stereo unspecified), the T/C is 91 % of control (dose: 50.0 mg/kg/injection, schedule: Q01DX001 (ip), vehicle: Klucel (hydroxypropylcellulose) (HPC)); 116 % of control (dose: 100.0 mg/kg/injection, schedule: Q01DX001 (ip), vehicle: Klucel (hydroxypropylcellulose) (HPC)); 91 % of control (dose: 200.0 mg/kg/injection, schedule: Q01DX001 (ip), vehicle: Klucel (hydroxypropylcellulose) (HPC)); 95 % of control (dose: 400.0 mg/kg/injection, schedule: Q01DX001 (ip), vehicle: Klucel (hydroxypropylcellulose) (HPC)).
For `NC(=O)N/N=C(\CF)C(=O)O`, the T/C is 105 % of control (dose: 6.0 mg/kg/injection, schedule: Q01DX009 (ip), vehicle: Klucel (hydroxypropylcellulose) (HPC)); 105 % of control (dose: 12.0 mg/kg/injection, schedule: Q01DX009 (ip), vehicle: Klucel (hydroxypropylcellulose) (HPC)); 115 % of control (dose: 24.0 mg/kg/injection, schedule: Q01DX009 (ip), vehicle: Klucel (hydroxypropylcellulose) (HPC)); 105 % of control (dose: 48.0 mg/kg/injection, schedule: Q01DX009 (ip), vehicle: Klucel (hydroxypropylcellulose) (HPC)).
Take `CCCCOC(=O)c1cccc(C(=O)OCCCC)c1Sc1ccccc1`: the T/C (dose: 50.0 mg/kg/injection, schedule: Q01DX009 (ip), vehicle: other) was 105 % of control; the T/C (dose: 100.0 mg/kg/injection, schedule: Q01DX009 (ip), vehicle: other) was 100 % of control; the T/C (dose: 200.0 mg/kg/injection, schedule: Q01DX009 (ip), vehicle: other) was 107 % of control.
`NC(CSC(c1ccccc1)(c1ccccc1)c1ccc(F)cc1)C(=O)O` (stereo unspecified): the T/C (dose: 2.9 mg/kg/injection, schedule: Q01DX009 (ip), vehicle: Klucel (hydroxypropylcellulose) (HPC)) is 107 % of control; the T/C (dose: 4.3 mg/kg/injection, schedule: Q01DX009 (ip), vehicle: Klucel (hydroxypropylcellulose) (HPC)) is 123 % of control; the T/C (dose: 12.5 mg/kg/injection, schedule: Q01DX009 (ip), vehicle: Klucel (hydroxypropylcellulose) (HPC)) is 170 % of control; the T/C (dose: 23.0 mg/kg/injection, schedule: Q01DX009 (ip), vehicle: Klucel (hydroxypropylcellulose) (HPC)) was 216 % of control; the T/C (dose: 25.0 mg/kg/injection, schedule: Q01DX009 (ip), vehicle: Klucel (hydroxypropylcellulose) (HPC)) is 227 % of control; the T/C (dose: 25.0 mg/kg/injection, schedule: Q04DX003 (ip), vehicle: Klucel (hydroxypropylcellulose) (HPC)) was 170 % of control. Further, the T/C runs as follows: (dose: 35.0 mg/kg/injection, schedule: Q01DX009 (ip), vehicle: Klucel (hydroxypropylcellulose) (HPC)) 222 % of control; (dose: 50.0 mg/kg/injection, schedule: Q01DX009 (ip), vehicle: Klucel (hydroxypropylcellulose) (HPC)) 255 % of control and 104 % of control and 209 % of control; (dose: 50.0 mg/kg/injection, schedule: Q04DX003 (ip), vehicle: Klucel (hydroxypropylcellulose) (HPC)) 180 % of control; (dose: 75.0 mg/kg/injection, schedule: Q01DX009 (ip), vehicle: Klucel (hydroxypropylcellulose) (HPC)) 90 % of control; (dose: 100.0 mg/kg/injection, schedule: Q01DX009 (ip), vehicle: Klucel (hydroxypropylcellulose) (HPC)) 194 % of control; (dose: 100.0 mg/kg/injection, schedule: Q04DX003 (ip), vehicle: Klucel (hydroxypropylcellulose) (HPC)) 175 % of control and 185 % of control. The T/C by setting is: (dose: 200.0 mg/kg/injection, schedule: Q01DX009 (ip), vehicle: Klucel (hydroxypropylcellulose) (HPC)) 100 % of control; (dose: 200.0 mg/kg/injection, schedule: Q04DX003 (ip), vehicle: Klucel (hydroxypropylcellulose) (HPC)) 285 % of control and 205 % of control.
`COc1ccc(C(C)(C#N)Nc2ccccc2)cc1` (stereo unspecified): the T/C reads like this: (dose: 50.0 mg/kg/injection, schedule: Q04DX003 (ip), vehicle: saline sonified) 100 % of control; (dose: 100.0 mg/kg/injection, schedule: Q04DX003 (ip), vehicle: saline sonified) 100 % of control; (dose: 200.0 mg/kg/injection, schedule: Q04DX003 (ip), vehicle: saline sonified) 100 % of control.
For `CCCCCCC(N)C(C)O` (stereo unspecified), the T/C is, setting by setting: (dose: 12.5 mg/kg/injection, schedule: Q01DX009 (ip), vehicle: saline) 105 % of control; (dose: 25.0 mg/kg/injection, schedule: Q01DX009 (ip), vehicle: saline) 100 % of control; under setting [1], 101 % of control; (dose: 50.0 mg/kg/injection, schedule: Q01DX009 (ip), vehicle: saline) 105 % of control.
With `Nc1cccnc1`, the T/C was 100 % of control under setting [3] and 110 % of control (dose: 10.0 mg/kg/injection, schedule: Q01DX009 (ip), vehicle: saline).
As to `O=C1CSC(C23CC4CC(CC(C4)C2)C3)N1c1nccs1` (stereo unspecified), the T/C reads like this: under setting [1], 92 % of control; under setting [2], 90 % of control.
On to `COc1cc(N2C(N)=NC(N)=NC2(C)C)cc(OC)c1OC`, for which the T/C is, setting by setting: (dose: 6.25 mg/kg/injection, schedule: Q04DX003 (ip), vehicle: saline) 100 % of control; (dose: 12.5 mg/kg/injection, schedule: Q04DX003 (ip), vehicle: saline) 115 % of control; (dose: 25.0 mg/kg/injection, schedule: Q04DX003 (ip), vehicle: saline) 100 % of control.
With `CS(=O)(=O)OCCN(CCOS(C)(=O)=O)c1ccc(C(=O)O)cc1`, the T/C runs as follows: (dose: 33.0 mg/kg/injection, schedule: Q01DX009 (ip), vehicle: saline with Tween-80) 195 % of control; under setting [1], 200 % of control; (dose: 75.0 mg/kg/injection, schedule: Q01DX009 (ip), vehicle: saline with Tween-80) 236 % of control; (dose: 300.0 mg/kg/injection, schedule: Q04DX003 (ip), vehicle: saline with Tween-80) 113 % of control.
For the compound `[N-]=[N+]=[N-]`, the T/C is, setting by setting: (dose: 2.5 mg/kg/injection, schedule: Q01DX009 (ip), vehicle: saline) 90 % of control; under setting [3], 90 % of control; (dose: 5.0 mg/kg/injection, schedule: Q04DX003 (ip), vehicle: saline) 112 % of control; (dose: 10.0 mg/kg/injection, schedule: Q04DX003 (ip), vehicle: saline) 95 % of control.
